Measured values from patent publication EP0335545B2, “Pharmaceutical formulations for parenteral use” (UNIVERSITY OF FLORIDA, priority 1988, dated 1989).
In brackets after ≈: the same amount, converted by molar mass.

Legend:
physchem [1] = test: physchem
Experimental: For comparison, the solubilities of the drugs in water were also determined.
• Wavelength: 245 nm • Column: Waters µBondapak CN, 3.9 mm (id.) x 30 cm • Mobile phase: acetonitrile, acetic acid, water (60:1:39) containing 0.1% 1-hexasulfonic acid, sodium salt • Flow rate: 2.00 mL/min.
• Wavelength: 263 nm • Column: ASI C18, 10 µm, 3.9 mm (i.d.) x 30 cm • Mobile phase: acetonitrile, water (55:45) • Flow rate: 1.00 mL/min.
• Wavelength: 241 nm • Column: Waters µBondapak CN, 3.9 mm (i.d.) x 30 cm • Mobile phase: acetonitrile, water (6:4) • Flow rate: 2.00 mL/min.
• Wavelength: 280 nm • Column: ASI C18, 10 µm, 3.9 mm (i.d.) x 30 cm • Mobile phase: acetonitrile, water (55:45) • Flow rate: 2.00 mL/min.
• Wavelength: 248 nm • Column: Fisher Resolvex C18, 4.6 mm (i.d.) x 25 cm • Mobile phase: acetonitrile, water (6:4) • Flow rate: 1.50 mL/min.
• Wavelength: 248 nm • Column: Fisher Resolvex C18, 4.6 mm (i.d.) x 25 cm • Mobile phase: acetonitrile, water (7:3) • Flow rate: 2.00 mL/min.
• Wavelength: 253 nm • Column: Waters µBondapak CN, 3.9 mm (i.d.) x 30 cm • Mobile phase: acetonitrile, […], water (60:1:39) containing 0.1% 1-hexanesulfonic acid, sodium salt • Flow rate: 2.00 mL/min.
• Wavelength 308 nm • Column: Fisher Resolvex C18, 4.6 mm (i.d.) x 25 cm • Mobile phase: methanol, acetic acid, water (50:1:49) containing 0.1% 1-octanesulfonic acid, sodium salt • Flow rate: 2.00 mL/min.
• Wavelength: 240 nm • Column: Fisher Resolvex C18, 4.6 mm (i.d.) x 25 cm • Mobile phase: acetonitrile, water (6:4) • Flow rate: 1.50 mL/min.
• Wavelength: 240 nm • Column: Fisher Resolvex C18, 4.6 mm (i.d.) x 25 cm Mobile phase: acetonitrile, water (7:3) • Flow rate: 2.00 mL/min.
• Wavelength: 241 nm • Column: Fisher Resolvex C18, 4.6 mm (i.d.) x 25 cm • Mobile phase: acetonitrile, water (7:3) • Flow rate: 2.00 mL/min.
• Wavelength: 230 nm • Column: Waters µBondapak CN, 3.9 mm (i.d.) x 30 cm • Mobile phase: acetonitrile, water (35:65) • Flow rate: 2.00 mL/min.
• Wavelength: 258 nm • Column: Fisher Resolvex C18, 4.6 mm (i.d.) x 25 cm • Mobile phase: acetonitrile, water (55:45) • Flow rate: 2.00 mL/min.
• Wavelength: 325 nm • Column: Waters µBondapak C18, 10 µm, 3.9 mm (i.d.) x 30 cm • Mobile phase: acetonitrile, water (55:45) • Flow rate: 1.00 mL/min.

[2] = Phase-solubility experiments in aqueous HPCD at 30.0±0.2°C (chlorambucil, lomustine, melphalan)
Experimental: (§1) After equilibration in a 30.0±0.2°C water bath in the dark for up to 72 hours, aliquots of the mixtures were filtered through 0.45 Mm membrane filters, diluted and the drug concentration determined by HPLC or UV methods.

physchem [3] = test: physchem; remark: listed apart in the source
Experimental: as §1

[4] = Preparation of solid freeze-dried HPCD complexes: degree of incorporation; type: physicochemical; details: freeze-dried complex from 50% w/w HPCD (ASDS 5.1)
Experimental: An excess of E2-CDS was added and the solution then was purged with helium. The resulting suspension was then sonicated for 30 minutes, filtered through a glass filter (ASTM 10-15M, Pyrex No. 36060) and freeze-dried overnight. Best results were obtained by hard-freezing the aqueous solution of the E2-CDS/HPCD complex for at least 10 hours before lyophilization. The degree of complex formation was determined by dissolving a small amount of the dry complex in methanol and then analyzing by high pressure liquid chromatography (HPLC).
An excess of E2-CDS or other CDS was added to a 50% w/w solution of HPCD. The suspension was sonicated for 30 minutes, filtered through 0.45 µm PVDF membranes and freeze-dried. The degree of incorporation was determined either spectrophotometrically or by HPLC. In some cases, the effect of solubilizing agents on the degree of incorporation was examined. This involved adding small amounts of polyoxyethylene 20 cetyl ether (Brij), polyoxyethylene sorbitan monooleate (Tween 80) or ethanol to the aqueous solution prior to lyophilization.
The retention time was 5.2 min. Other compounds were assayed spectrophotometrically.
The solution was degassed and the suspension was sonicated for 30 minutes, after which it was filtered and the filtrate was lyophilized. The dried filtrate contained 65.6 mg testosterone propionate or 29.6 mg T-CDS1 per gram of cyclodextrin complex. Compounds were analyzed for decomposition by thin-layer chromatography and ultraviolet absorption.

[5] = Solubilizing effect of a 50% w/w solution of HPCD on steroids and CDS; details: 50% w/w aqueous hpcd
Experimental: An excess of E2-CDS was sonicated with an aqueous solution of the appropriate solubilizing agent for 30 minutes. The suspension was then centrifuged, filtered through 0.45 µm polyvinylidene difluoride (Millex-HV4, Millipore®) membranes and analyzed by HPLC. […] An estimation of the bulk equilibrium constant was obtained by correlating the millimolarity of E2-CDS solubilized and the millimolarity of the cyclodextrin added. This latter value was calculated using the average molecular weight of the isomeric mixture determined by mass spectroscopy. The solubilizing effect of a 50% w/w solution of HPCD was also examined for a series of steroids and dihydropyridines (CDS). These studies were carried out in a similar manner to those previously described.
For the CDS, the wavelength monitored was 360 nm while for estrogen 220 nm was used.
Separation was achieved on an Analytical Sciences, Inc. (ASI) 10 µm particle size, C18 reversed phase 30 cm x 3.9 mm i.d. analytical column. The flow rate was 1 mL/min, the compounds were detected at 360 nm and in all determinations the temperature was ambient. […] For the GABA-CDS1, a mobile phase consisting of 50:1:1:48 of the same components was required. […] Other compounds were assayed spectrophotometrically.

C#C[C@]1(O)CC[C@H]2[C@@H]3CCc4cc(OC)ccc4[C@H]3CC[C@@]21C [Ethynylestradiol 3-methyl ether]
Increase in Solubility (HPCD/water) (physchem [1]): ∼13,000
solubility (physchem [1]; 25% w/v hpcd): 7130 µg/mL (≈ 23 mM)
solubility (physchem [1]; 50% w/w hpcd): 13300 µg/mL (≈ 42.8 mM)
solubility (physchem [1]; water): 1 µg/mL (≈ 0.00322 mM)

O=NN(CCCl)C(=O)NC1CCCCC1 [Lomustine]
solubility ([2]; 1% w/w aqueous hpcd): 380 µg/mL (≈ 1.63 mM)
solubility ([2]; 5% w/w aqueous hpcd): 1680 µg/mL (≈ 7.19 mM)
solubility ([2]; 10% w/w aqueous hpcd): 3330 µg/mL (≈ 14.2 mM)
solubility ([2]; 15% w/w aqueous hpcd): 6260 µg/mL (≈ 26.8 mM)
solubility ([2]; 20% w/v aqueous hpcd): 8440 µg/mL (≈ 36.1 mM)
solubility ([2]; 20% w/w aqueous hpcd): 8440 µg/mL (≈ 36.1 mM)
increase: water/25% HPCD ([2]; 25% HPCD versus water): 49.44
solubility ([2]; 25% w/v aqueous hpcd): 8900 µg/mL (≈ 38.1 mM)
solubility ([2]; 25% w/w aqueous hpcd): 8900 µg/mL (≈ 38.1 mM)
solubility at 4 h ([2]; 50% w/w aqueous hpcd): ~12000 µg/mL (≈ 51.3 mM)
degradation during the solubility experiments ([2]; aqueous HPCD, 30°): Some degradation occurred
solubility ([2]; water): 180 µg/mL (≈ 0.77 mM)
solubility ([2]; water (0% hpcd)): 180 µg/mL (≈ 0.77 mM)

CN1CCN=C(c2ccccc2)c2cc(Cl)ccc21 [Medazepam]
solubility (physchem [1]; 50% w/w hpcd, pH 7.5): 8300 µg/mL (≈ 30.7 mM)
solubility (physchem [1]; water): 10 µg/mL (≈ 0.0369 mM)

N[C@@H](Cc1ccc(N(CCCl)CCCl)cc1)C(=O)O [Melphalan]
solubility (physchem [3]; 1% aqueous hpcd): 4160 µg/mL (≈ 13.6 mM)
solubility (physchem [3]; 2% aqueous hpcd): 4300 µg/mL (≈ 14.1 mM)
solubility (physchem [3]; 3% aqueous hpcd): 6240 µg/mL (≈ 20.4 mM)
solubility (physchem [3]; 4% aqueous hpcd): 7140 µg/mL (≈ 23.4 mM)
solubility (physchem [3]; 5% aqueous hpcd): 7200 µg/mL (≈ 23.6 mM)
solubility (physchem [3]; 7% aqueous hpcd): 10500 µg/mL (≈ 34.4 mM)
solubility (physchem [3]; 10% aqueous hpcd): 13400 µg/mL (≈ 43.8 mM)
solubility (physchem [3]; 15% aqueous hpcd): 17600 µg/mL (≈ 57.8 mM)
solubility (physchem [3]; 20% aqueous hpcd): 24800 µg/mL (≈ 81.1 mM)
solubility (physchem [3]; 25% aqueous hpcd): 31400 µg/mL (≈ 103 mM)
solubility at 4 h (physchem [3]; 50% aqueous hpcd): ~21900 µg/mL (≈ 71.8 mM)
solubility (physchem [3]; water): 1260 µg/mL (≈ 4.13 mM)
solubility (physchem [3]; water (0% hpcd)): 1260 µg/mL (≈ 4.13 mM)

CN(Cc1cnc2nc(N)nc(N)c2n1)c1ccc(C(=O)N[C@@H](CCC(=O)O)C(=O)O)cc1 [Methotrexate]
solubility (physchem [1]; 50% w/w hpcd, pH 7.6): 10000 µg/mL (≈ 22 mM)
solubility (physchem [1]; water): 45 µg/mL (≈ 0.099 mM)

C#C[C@]1(OC(C)=O)CC[C@H]2[C@@H]3CCC4=CC(=O)CC[C@@H]4[C@H]3CC[C@@]21C [Norethindrone acetate]
Increase in Solubility (HPCD/water) (physchem [1]): ∼97,500
solubility (physchem [1]; 25% w/v hpcd): 9410 µg/mL
solubility (physchem [1]; 50% w/w hpcd): 19500 µg/mL
solubility (physchem [1]; water): 0.2 µg/mL

O=C1NC(=O)C(c2ccccc2)(c2ccccc2)N1 [Phenytoin]
Increase in Solubility (HPCD/water) (physchem [1]): ∼450
solubility (physchem [1]; 50% w/w hpcd): 9300 µg/mL (≈ 36.9 mM)
solubility (physchem [1]; water): 20 µg/mL (≈ 0.0793 mM)

CCC(=O)O[C@H]1CC[C@H]2[C@@H]3CCC4=CC(=O)CC[C@]4(C)[C@H]3CC[C@]12C [Testosterone 17-Propionate]
Amount of Drug in Dry Complex [4]: 65.6 mg/g
solubility [5]: 38000 µg/mL (≈ 110 mM)

C[C@]12CC[C@H]3[C@@H](CCC4=CC(=O)CC[C@@]43C)[C@@H]1CC[C@@H]2O [Testosterone]
solubility [5]: 38000 µg/mL (≈ 132 mM)

Estradiol 17-Valerate
Amount of Drug in Dry Complex [4]: 23.5 mg/g
